Some test systems named below: UACC-62 melanoma; NCI-H226 lung; HCT-116 colon; COLO 205 colon; U251 CNS; HOP-92 NSCLC; ACHN renal; LOX IMVI melanoma; CAKI-1 renal; KM12 colon.
Holding throughout (assay): NCI-60 cell line screen, 48 h

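These data come from cells grown in 96-well plates and exposed to compound for 48 hours at five concentrations. Abbreviation: GI50, concentration required for 50% inhibition of growth. At the TGI there is no net growth.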 Bounds are passed on as bounds.

In the case of `CC(=O)Nc1ccc(-c2csc(Nc3cccc(-c4csc(C)n4)c3)n2)cc1`, the GI50 in the assay on UACC-62 melanoma was 0.139 µM; in the assay with NCI-H226 lung, 4.92 µM; in the assay on HCT-116 colon, 0.697 µM; in the assay on COLO 205 colon, 1 µM; in the assay with U251 CNS, 1.13 µM; in the assay with ACHN renal, 1.87 µM. The GI50 in the assay with LOX IMVI melanoma is 0.375 µM; in the assay on CAKI-1 renal, 1.61 µM; in the assay on KM12 colon, 0.404 µM. Further, the TGI with UACC-62 melanoma is 1.51 µM; with NCI-H226 lung, 16.8 µM; with HCT-116 colon, greater than 26.7 µM; with COLO 205 colon, greater than 50 µM; with U251 CNS, 9.69 µM; with HOP-92 NSCLC it was greater than 23.1 µM. For the same molecule, the TGI was found to be 22.6 µM in the assay on ACHN renal, 10.1 µM in the assay on LOX IMVI melanoma, 8.75 µM in the assay with CAKI-1 renal and 6.07 µM in the assay with KM12 colon.

As to `O=C(c1ccco1)c1c(C(F)(F)F)nc2ccc(Cl)cc2[n+]1[O-]`, the GI50 with UACC-62 melanoma is greater than 100 µM; with NCI-H226 lung, greater than 100 µM; in the assay with HCT-116 colon, greater than 100 µM; in the assay on COLO 205 colon it was 70.4 µM; in the assay on U251 CNS, greater than 100 µM; in the assay with HOP-92 NSCLC, 44 µM. Moreover, the GI50 in the assay on ACHN renal was greater than 100 µM; with LOX IMVI melanoma, greater than 100 µM; with CAKI-1 renal, 26.6 µM; in the assay with KM12 colon, greater than 100 µM. Besides, the TGI in the assay on UACC-62 melanoma, with NCI-H226 lung, in the assay on HCT-116 colon, in the assay with COLO 205 colon, in the assay with U251 CNS and in the assay on HOP-92 NSCLC was greater than 100 µM in each case. Moreover, the TGI in the assay with ACHN renal is greater than 100 µM; in the assay with LOX IMVI melanoma it was greater than 100 µM; in the assay with CAKI-1 renal, 85.8 µM; in the assay with KM12 colon, greater than 100 µM.

In the case of `CN(C)CC[C@H](CSc1ccccc1)Nc1ccc(S(=O)(=O)NC(=O)c2ccc(N3CCN(Cc4ccccc4-c4ccc(Cl)cc4)CC3)cc2)cc1[N+](=O)[O-]`, the GI50 in the assay with UACC-62 melanoma is 3.51 µM; in the assay on NCI-H226 lung, 4.59 µM; with HCT-116 colon, 2.93 µM; with COLO 205 colon, 2.12 µM; in the assay with U251 CNS it was 3.9 µM; in the assay with HOP-92 NSCLC it was 0.186 µM. Further, the GI50 is 4.96 µM in the assay on ACHN renal, 2.77 µM in the assay with LOX IMVI melanoma, 6.71 µM in the assay with CAKI-1 renal and 3.6 µM in the assay on KM12 colon. Besides, the TGI was 20 µM in the assay with UACC-62 melanoma; 17.4 µM in the assay on NCI-H226 lung; greater than 27.3 µM in the assay with HCT-116 colon; 4.7 µM with COLO 205 colon; 17.4 µM in the assay on U251 CNS; 0.833 µM with HOP-92 NSCLC. Besides, the TGI in the assay with ACHN renal was greater than 50.6 µM; in the assay with LOX IMVI melanoma, greater than 100 µM; in the assay with CAKI-1 renal, greater than 100 µM; in the assay with KM12 colon, 23.6 µM.

As for `COc1ccc(-c2ccc(=O)oc2C#Cc2cc(OC)c(OC)c(OC)c2)cc1O`, the GI50 in the assay on UACC-62 melanoma is 0.35 µM; in the assay on NCI-H226 lung, 1.42 µM; with HCT-116 colon, 0.249 µM; with COLO 205 colon, 4.05 µM; in the assay on U251 CNS, 0.358 µM; with HOP-92 NSCLC, 0.999 µM. Moreover, the GI50 in the assay on ACHN renal is 0.628 µM; with LOX IMVI melanoma, 0.399 µM; in the assay on CAKI-1 renal it was 0.621 µM; with KM12 colon it was 0.759 µM. The TGI is greater than 100 µM with UACC-62 melanoma; greater than 100 µM in the assay on NCI-H226 lung; greater than 91.9 µM in the assay with HCT-116 colon; greater than 40.4 µM with COLO 205 colon; 4.58 µM with U251 CNS; 9.87 µM with HOP-92 NSCLC. The TGI was greater than 62.1 µM in the assay with ACHN renal, greater than 100 µM in the assay on LOX IMVI melanoma, greater than 100 µM in the assay on CAKI-1 renal and greater than 100 µM in the assay on KM12 colon.

As to `Cc1nc(Nc2ccc(Cl)cc2)sc1C(=O)NNC(=S)NN`, the TGI with UACC-62 melanoma was 33.7 µM; with NCI-H226 lung, 38 µM; in the assay with HCT-116 colon, 30.8 µM; with COLO 205 colon, 43.6 µM; in the assay with U251 CNS, 32.3 µM; in the assay on HOP-92 NSCLC it was 43.2 µM. Further, the TGI in the assay with ACHN renal was determined as 45.7 µM; in the assay on LOX IMVI melanoma, 29.5 µM; in the assay on CAKI-1 renal it was 44.8 µM; in the assay on KM12 colon, 42.3 µM.

Regarding `COc1cc(C(=O)N2CCN(C(=O)c3cc(OC)c(OC)c(OC)c3)C2=S)cc(OC)c1OC`, the GI50 with UACC-62 melanoma is 14.9 µM; with NCI-H226 lung it was 19.5 µM; with HCT-116 colon it was 18.2 µM; with COLO 205 colon, 19.4 µM; with U251 CNS, 16.3 µM; in the assay with HOP-92 NSCLC, 16.1 µM. The GI50 is 17.8 µM in the assay with ACHN renal, 15.4 µM in the assay with LOX IMVI melanoma, 12.3 µM in the assay with CAKI-1 renal and 14.2 µM with KM12 colon. The TGI came to 29.9 µM in the assay on UACC-62 melanoma; 39.1 µM in the assay on NCI-H226 lung; 33.1 µM with HCT-116 colon; 40.4 µM with COLO 205 colon; 34.4 µM in the assay on U251 CNS; 34.3 µM in the assay on HOP-92 NSCLC. In addition, the TGI was found to be 34.5 µM in the assay with ACHN renal, 30.7 µM in the assay on LOX IMVI melanoma, 24.7 µM with CAKI-1 renal and 39.7 µM in the assay on KM12 colon.

With `CCCCCCCCCCCCCCCC(=O)OCCOCCOCCOCc1ccccc1`, the TGI with UACC-62 melanoma was greater than 100 µM; in the assay on NCI-H226 lung, greater than 100 µM; with HCT-116 colon it was greater than 100 µM; with COLO 205 colon, greater than 100 µM; in the assay with U251 CNS it was greater than 100 µM; in the assay on HOP-92 NSCLC, 69.4 µM. Further, the TGI with ACHN renal, with LOX IMVI melanoma, in the assay with CAKI-1 renal and in the assay on KM12 colon was greater than 100 µM in each case.

Turning to `CN1CCN(c2ccc(Nc3cc(-c4cccc(-n5ccc6cc(C7CC7)cc(F)c6c5=O)c4CO)cn(C)c3=O)nc2)CC1`, the GI50 in the assay on UACC-62 melanoma was 2.4 µM; in the assay with NCI-H226 lung, 10.2 µM; in the assay with HCT-116 colon, 3.31 µM; in the assay with COLO 205 colon it was 2.22 µM; with U251 CNS, 3.47 µM; in the assay with HOP-92 NSCLC, 1.89 µM. In addition, the GI50 was 1.84 µM with ACHN renal, 3.4 µM with LOX IMVI melanoma, 2.66 µM in the assay on CAKI-1 renal and 6.16 µM in the assay with KM12 colon. Further, the TGI was found to be 6.63 µM with UACC-62 melanoma; 30.1 µM in the assay on NCI-H226 lung; 18.9 µM in the assay with HCT-116 colon; 5.72 µM with COLO 205 colon; 14 µM in the assay on U251 CNS; 8.42 µM in the assay with HOP-92 NSCLC. For the same molecule, the TGI with ACHN renal worked out at 3.76 µM; in the assay on LOX IMVI melanoma, 12.7 µM; in the assay on CAKI-1 renal, 10.8 µM; in the assay with KM12 colon, 31.1 µM.

In the case of `COC(=O)C1CCCC2(C1)OCCO2` (stereo not drawn), the TGI in the assay on UACC-62 melanoma, in the assay with NCI-H226 lung, with HCT-116 colon, in the assay with COLO 205 colon, with U251 CNS and in the assay on HOP-92 NSCLC was greater than 100 µM each time. Also, the TGI in the assay with ACHN renal, in the assay on LOX IMVI melanoma, with CAKI-1 renal and with KM12 colon was greater than 100 µM each time.

Regarding `CCN(CC)CCNc1nc(N)c(C#N)c(C#N)c1C#N`, the TGI in the assay with UACC-62 melanoma, in the assay with NCI-H226 lung, in the assay with HCT-116 colon, in the assay on COLO 205 colon, in the assay on U251 CNS and with HOP-92 NSCLC was greater than 10 µM throughout. The TGI in the assay with ACHN renal, with LOX IMVI melanoma, in the assay on CAKI-1 renal and in the assay with KM12 colon was greater than 10 µM each time.

Take `O=C(Nc1cccc(C(F)(F)F)c1)c1ccc(NC2=C(Cl)C(=O)N(Cc3ccc(Cl)cc3Cl)C2=O)cc1`: the GI50 was 13.7 µM in the assay with UACC-62 melanoma; 5.92 µM with NCI-H226 lung; 5.99 µM in the assay on HCT-116 colon; 4.78 µM in the assay with COLO 205 colon; 5.82 µM with U251 CNS; 4.71 µM with HOP-92 NSCLC. For the same molecule, the GI50 with ACHN renal was 11.9 µM; in the assay on LOX IMVI melanoma, 1.63 µM; with CAKI-1 renal it was 16.8 µM; in the assay with KM12 colon it was 14.6 µM. The TGI in the assay with UACC-62 melanoma was determined as 26.6 µM; in the assay on NCI-H226 lung, 24 µM; in the assay on HCT-116 colon it was 18.6 µM; in the assay with COLO 205 colon, 24.2 µM; in the assay with U251 CNS, 19 µM; with HOP-92 NSCLC, 16.2 µM. Moreover, the TGI in the assay on ACHN renal worked out at 46.1 µM; with LOX IMVI melanoma, 3.44 µM; in the assay with CAKI-1 renal it was 34.6 µM; with KM12 colon it was 31.4 µM.

For the molecule `O=C(/C=C/c1ccc[nH]1)c1ccc(-n2ccc(C(F)(F)F)n2)cc1`, the GI50 with UACC-62 melanoma was greater than 100 µM; in the assay on HCT-116 colon it was greater than 100 µM; in the assay with COLO 205 colon, greater than 100 µM; in the assay on U251 CNS, 5.55 µM; in the assay on HOP-92 NSCLC it was greater than 100 µM; in the assay on ACHN renal, greater than 100 µM. Further, the GI50 is greater than 100 µM in the assay with LOX IMVI melanoma, greater than 31.6 µM with CAKI-1 renal and 0.463 µM with KM12 colon. The TGI in the assay on UACC-62 melanoma, with NCI-H226 lung, in the assay on HCT-116 colon, in the assay on COLO 205 colon, in the assay on U251 CNS and in the assay on HOP-92 NSCLC was greater than 100 µM in each case. The TGI is greater than 100 µM in the assay with ACHN renal, greater than 100 µM in the assay with LOX IMVI melanoma, greater than 100 µM in the assay on CAKI-1 renal and 8.95 µM in the assay on KM12 colon.

Regarding `Cc1c(N(C)C)ccc2c(=O)c3cccc(CC(=O)O)c3oc12`, the TGI with UACC-62 melanoma, with NCI-H226 lung, with HCT-116 colon, with COLO 205 colon, with U251 CNS and in the assay on HOP-92 NSCLC was greater than 100 µM each time. Also, the TGI in the assay with ACHN renal, in the assay on LOX IMVI melanoma, in the assay on CAKI-1 renal and in the assay with KM12 colon was greater than 100 µM in each case.

The values above are taken from PubChem BioAssay (NCI).
